{"source": "patent US20250090541A1", "about": "“Methods for Treating Neurodegenerative Disorders” (Praetego Inc, priority 2022, published 2025)", "assay_type_in_all_cases": "in vivo", "key": {"[1]": {"test_system": "human tau mice", "experiment": "Object recognition test, human tau mice", "excerpt": "The human tau mouse is a model of sporadic dementia that expresses human non-mutant tau (6 isoforms) in the absence of endogenous mouse tau. The model develops age-associated pathology, with hyperphosphorylated tau detected in cell bodies and dendrites by 3 months of age (Andorfer et al., 2003; J Neurochem 86, 582-590, doi:10.1046/j.1471-4159.2003.01879.x). These mice display abnormal spatial learning by 6 months of age and impaired learning in the Morris water maze with memory loss by 12 months of age, as well as memory deficits in the Barnes maze by 6 months of age (Marquez et al, 2021).\n(§1) Female and male human tau mice (Jax #005491) were treated daily for 25 weeks with PTG-630 trihydrochloride at 1 and 5 mg/kg in drinking water starting at 10 weeks of age (before cognitive deficits appear).\nLearning and memory were assessed using the Barnes maze test and the object recognition test at 6-8, 12-13, 18-19 and 24-25 weeks. Corneal nerves were imaged by corneal confocal microscopy (CCM) at week 6, 9, 12, 18 and 25. Data represent male and female results combined, mean±sem."}, "[2]": {"test_system": "human tau mice", "experiment": "Tactile allodynia (manual von Frey filaments), human tau mice", "settings": "5 mg/kg, after 14 weeks of treatment", "method": "as §1\nTactile and thermal responses, measures of associated damage to the peripheral nervous system (PNS), were assessed at 8, 14, 18 and 24 weeks. hTau mice developed significant tactile allodynia measured with manual von Frey filaments at the 14 weeks time point (FIG. 4)."}, "[3]": {"test_system": "Drebrin", "experiment": "Western blot of hippocampus, human tau mice: Drebrin", "settings": "12 weeks of treatment in drinking water", "excerpt": "(§2) Mouse Hippocampus were processed for Western blotting analysis of (A) Drebrin (actin binding protein in dendritic spines, role in neuronal growth, a decrease=contributing factor in the pathogenesis of memory disturbance), (B) PSD95 (a post-synaptic protein, role in the regulation of excitatory synapse maturity), and (C) NeuN (neuronal nuclear antigen, biomarker for neurons, decrease=neuronal loss) (FIG. 3)."}, "[4]": {"test_system": "NeuN", "experiment": "Western blot of hippocampus, human tau mice: NeuN", "settings": "5 mg/kg", "method": "as §1, §2"}, "[5]": {"experiment": "Mortality and apparent toxicity, 25 weeks in human tau mice", "settings": "1 and 5 mg/kg in drinking water", "method": "as §1\n• 1—Control (C57B16), N=7 male, N=7 female, Final N=6 male, N=6 female • 2—htau, N=7 male, N=7 female, Final N=7 male, N=6 female • 3—htau+PTG-630 1 mg/kg drinking water, N=7 male, N=7 female, Final N=7 male, N=7 female • 4—htau+PTG-630 5 mg/kg drinking water, N=7 male, N=7 female, Final N=6 male, N=7 female\nOne mouse in group 4 died at week 8 from tooth occlusion."}, "[6]": {"test_system": "carboxymethyl Lysine (CML)", "experiment": "Carboxymethyl lysine (CML) by LC-MS/MS in terminal plasma and brain cortex, htau mice", "method": "as §1\nTerminal plasma and brain cortex were also analyzed for carboxymethyl Lysine (CML), a prominent advanced glycation end-product (AGE), by an LC-MS/MS quantitative chemical analysis method. PTG-630 and PTG-670 were developed as potent AGE inhibitors and tested for amelioration of PNS and CNS damage due to the extensive work that implicated AGE formation as a causative factor in the development of neurodegenerative pathologies."}}, "data": [{"smiles": "Cc1ncc(CN2CCOCC2)c(-c2ncc[nH]2)c1O", "note": "[PTG-630, 4-(1H-imidazol-2-yl)-2-methyl-5-(morpholinomethyl)pyridin-3-ol]", "values": [{"measurement": "short term episodic memory deficits in Object recognition test", "setting": "[1]; 1 mg/kg in drinking water", "result": "partially ameliorated"}, {"measurement": "short term episodic memory deficits in Object recognition test", "setting": "[1]; 5 mg/kg in drinking water for 17 weeks", "result": "significantly alleviated"}, {"measurement": "short-term episodic memory (recognition index)", "setting": "[1]; FIG. 2 legend, dose not stated", "result": "partially prevented"}, {"measurement": "tactile allodynia", "setting": "[2]", "result": "significantly ameliorated"}, {"measurement": "reduced drebrin levels in hippocampus", "setting": "[3]", "result": "significantly (p<0.05) ameliorated"}, {"measurement": "neuronal loss (NeuN) in hippocampus", "setting": "[4]", "result": "partially alleviated"}, {"measurement": "apparent toxicity", "setting": "[5]", "result": "No toxicity was apparent"}, {"measurement": "CML levels in cortex", "setting": "[6]; female htau mice, 5 mg/kg", "result": "significantly (p<0.05) reduced"}, {"measurement": "CML levels in cortex", "setting": "[6]; male", "result": "No significant difference"}, {"measurement": "CML levels in plasma", "setting": "[6]; male and female", "result": "No significant difference"}]}]}
